# Measurements as given in ChEMBL document CHEMBL3885881, “DrugMatrix”.
# Organism: Rattus norvegicus
# Assay: DrugMatrix - Regimen: Daily Repeat
# Format: toxicity, organism-based, Sprague-Dawley
# Design: regimen Daily Repeat, gender Male, age 6-8 weeks
# Conditions: in vivo, po, route oral GAVAGE, […]; for ABSOLUTE BASOPHIL / BASOPHIL / ABSOLUTE EOSINOPHIL / ABSOLUTE LYMPHOCYTE / ABSOLUTE MONOCYTE / ABSOLUTE SEGMENTED NEUTROPHIL / EOSINOPHIL / ERYTHROCYTE COUNT / HEMATOCRIT / HEMOGLOBIN / LEUKOCYTE COUNT / LYMPHOCYTE / MEAN CORPUSCULAR HEMOGLOBIN / MEAN CORPUSCULAR HEMOGLOBIN CONCENTRATION / MEAN CORPUSCULAR VOLUME / MONOCYTE / NEUTROPHIL / NUCLEATED RED BLOOD CELLS / PLATELET COUNT: tissue Blood; for ALANINE AMINOTRANSFERASE / ALBUMIN / ALKALINE PHOSPHATASE / ASPARTATE AMINOTRANSFERASE / BLOOD UREA NITROGEN / CARBON DIOXIDE / CHOLESTEROL / CREATINE PHOSPHOKINASE / CREATININE / GLUCOSE / LACTATE DEHYDROGENASE / LIPASE / TOTAL BILIRUBIN / TOTAL PROTEIN / URIC ACID: tissue Plasma
# [1] = 0 mg/kg, 72 h, dose level Control, time 3 day
# [2] = 0 mg/kg, 120 h, dose level Control, time 5 day
# [3] = 10 mg/kg, 72 h, dose level M1, time 3 day
# [4] = 10 mg/kg, 120 h, dose level M1, time 5 day
# [5] = 32 mg/kg, 72 h, dose level M2, time 3 day
# [6] = 32 mg/kg, 120 h, dose level M2, time 5 day
compound,measurement,setting,value
CC/C(=C(\c1ccccc1)c1ccc(OCCN(C)C)cc1)c1ccccc1 [TAMOXIFEN],ABSOLUTE BASOPHIL,[1],0 CELLS/uL
same,BASOPHIL,[1],0%
same,ABSOLUTE BASOPHIL,[2],0 CELLS/uL
same,BASOPHIL,[2],0%
same,ABSOLUTE BASOPHIL,[3],0 CELLS/uL
same,ABSOLUTE EOSINOPHIL,[3],39 CELLS/uL
same,ABSOLUTE LYMPHOCYTE,[3],8296.33 CELLS/uL
same,ABSOLUTE MONOCYTE,[3],168.33 CELLS/uL
same,ABSOLUTE SEGMENTED NEUTROPHIL,[3],529.67 CELLS/uL
same,BASOPHIL,[3],0%
same,EOSINOPHIL,[3],0.33%
same,ERYTHROCYTE COUNT,[3],5.69 x10E6/uL
same,HEMATOCRIT,[3],36.07%
same,HEMOGLOBIN,[3],13.53 G/DL
same,LEUKOCYTE COUNT,[3],9.03 x10E3/uL
same,LYMPHOCYTE,[3],92.33%
same,MEAN CORPUSCULAR HEMOGLOBIN,[3],23.9 pg
same,MEAN CORPUSCULAR HEMOGLOBIN CONCENTRATION,[3],37.57 G/DL
same,MEAN CORPUSCULAR VOLUME,[3],63.63 fL
same,MONOCYTE,[3],1.67%
same,NEUTROPHIL,[3],5.67%
same,NUCLEATED RED BLOOD CELLS,[3],0 /100WBC
same,PLATELET COUNT,[3],1296.33 x10E3/uL
same,ALANINE AMINOTRANSFERASE,[3],62.67 u/L
same,ALBUMIN,[3],4 G/DL
same,ALKALINE PHOSPHATASE,[3],415 u/L
same,ASPARTATE AMINOTRANSFERASE,[3],79.33 u/L
same,BLOOD UREA NITROGEN,[3],9.67 mg/dL
same,CARBON DIOXIDE,[3],28.33 mmol/L
same,CHOLESTEROL,[3],52.67 mg/dL
same,CREATINE PHOSPHOKINASE,[3],228 u/L
same,CREATININE,[3],0.2 mg/dL
same,GLUCOSE,[3],179 mg/dL
same,LACTATE DEHYDROGENASE,[3],97.33 u/L
same,LIPASE,[3],9.33 u/L
same,TOTAL BILIRUBIN,[3],0.13 mg/dL
same,TOTAL PROTEIN,[3],5.57 G/DL
same,URIC ACID,[3],1.9 mg/dL
same,ABSOLUTE BASOPHIL,[4],0 CELLS/uL
same,ABSOLUTE EOSINOPHIL,[4],119.33 CELLS/uL
same,ABSOLUTE LYMPHOCYTE,[4],10935 CELLS/uL
same,ABSOLUTE MONOCYTE,[4],173 CELLS/uL
same,ABSOLUTE SEGMENTED NEUTROPHIL,[4],706 CELLS/uL
same,BASOPHIL,[4],0%
same,EOSINOPHIL,[4],1%
same,ERYTHROCYTE COUNT,[4],6.34 x10E6/uL
same,HEMATOCRIT,[4],39.5%
same,HEMOGLOBIN,[4],15 G/DL
same,LEUKOCYTE COUNT,[4],11.93 x10E3/uL
same,LYMPHOCYTE,[4],91.67%
same,MEAN CORPUSCULAR HEMOGLOBIN,[4],23.67 pg
same,MEAN CORPUSCULAR HEMOGLOBIN CONCENTRATION,[4],37.97 G/DL
same,MEAN CORPUSCULAR VOLUME,[4],62.37 fL
same,MONOCYTE,[4],1.33%
same,NEUTROPHIL,[4],6%
same,NUCLEATED RED BLOOD CELLS,[4],0 /100WBC
same,PLATELET COUNT,[4],1194 x10E3/uL
same,ALANINE AMINOTRANSFERASE,[4],55.67 u/L
same,ALBUMIN,[4],4.53 G/DL
same,ALKALINE PHOSPHATASE,[4],463 u/L
same,ASPARTATE AMINOTRANSFERASE,[4],84 u/L
same,BLOOD UREA NITROGEN,[4],10.33 mg/dL
same,CARBON DIOXIDE,[4],27 mmol/L
same,CHOLESTEROL,[4],49.33 mg/dL
same,CREATINE PHOSPHOKINASE,[4],234 u/L
same,CREATININE,[4],0.24 mg/dL
same,GLUCOSE,[4],120 mg/dL
same,LACTATE DEHYDROGENASE,[4],120 u/L
same,LIPASE,[4],9.33 u/L
same,TOTAL BILIRUBIN,[4],0.1 mg/dL
same,TOTAL PROTEIN,[4],6.33 G/DL
same,URIC ACID,[4],2.4 mg/dL
same,ABSOLUTE BASOPHIL,[5],0 CELLS/uL
same,ABSOLUTE EOSINOPHIL,[5],54 CELLS/uL
same,ABSOLUTE LYMPHOCYTE,[5],12289.67 CELLS/uL
same,ABSOLUTE MONOCYTE,[5],92.33 CELLS/uL
same,ABSOLUTE SEGMENTED NEUTROPHIL,[5],964 CELLS/uL
same,BASOPHIL,[5],0%
same,EOSINOPHIL,[5],0.33%
same,ERYTHROCYTE COUNT,[5],6.02 x10E6/uL
same,HEMATOCRIT,[5],39.07%
same,HEMOGLOBIN,[5],14.67 G/DL
same,LEUKOCYTE COUNT,[5],13.4 x10E3/uL
same,LYMPHOCYTE,[5],91.67%
same,MEAN CORPUSCULAR HEMOGLOBIN,[5],24.4 pg
same,MEAN CORPUSCULAR HEMOGLOBIN CONCENTRATION,[5],37.53 G/DL
same,MEAN CORPUSCULAR VOLUME,[5],64.97 fL
same,MONOCYTE,[5],0.67%
same,NEUTROPHIL,[5],7.33%
same,NUCLEATED RED BLOOD CELLS,[5],0 /100WBC
same,PLATELET COUNT,[5],1258 x10E3/uL
same,ALANINE AMINOTRANSFERASE,[5],66.67 u/L
same,ALBUMIN,[5],4.63 G/DL
same,ALKALINE PHOSPHATASE,[5],371.33 u/L
same,ASPARTATE AMINOTRANSFERASE,[5],106.67 u/L
same,BLOOD UREA NITROGEN,[5],5.67 mg/dL
same,CARBON DIOXIDE,[5],26.33 mmol/L
same,CHOLESTEROL,[5],43.33 mg/dL
same,CREATINE PHOSPHOKINASE,[5],723.67 u/L
same,CREATININE,[5],0.2 mg/dL
same,GLUCOSE,[5],150.33 mg/dL
same,LACTATE DEHYDROGENASE,[5],184.33 u/L
same,LIPASE,[5],9.33 u/L
same,TOTAL BILIRUBIN,[5],0.1 mg/dL
same,TOTAL PROTEIN,[5],6.03 G/DL
same,URIC ACID,[5],2.5 mg/dL
same,ABSOLUTE BASOPHIL,[6],0 CELLS/uL
same,ABSOLUTE EOSINOPHIL,[6],0 CELLS/uL
same,ABSOLUTE LYMPHOCYTE,[6],12430.67 CELLS/uL
same,ABSOLUTE MONOCYTE,[6],227.33 CELLS/uL
same,ABSOLUTE SEGMENTED NEUTROPHIL,[6],2075.33 CELLS/uL
same,BASOPHIL,[6],0%
same,EOSINOPHIL,[6],0%
same,ERYTHROCYTE COUNT,[6],6.29 x10E6/uL
same,HEMATOCRIT,[6],39.17%
same,HEMOGLOBIN,[6],14.9 G/DL
same,LEUKOCYTE COUNT,[6],14.73 x10E3/uL
same,LYMPHOCYTE,[6],84.33%
same,MEAN CORPUSCULAR HEMOGLOBIN,[6],23.7 pg
same,MEAN CORPUSCULAR HEMOGLOBIN CONCENTRATION,[6],38.07 G/DL
same,MEAN CORPUSCULAR VOLUME,[6],62.27 fL
same,MONOCYTE,[6],1.67%
same,NEUTROPHIL,[6],14%
same,NUCLEATED RED BLOOD CELLS,[6],0 /100WBC
same,PLATELET COUNT,[6],1261.33 x10E3/uL
same,ALANINE AMINOTRANSFERASE,[6],65.67 u/L
same,ALBUMIN,[6],4.73 G/DL
same,ALKALINE PHOSPHATASE,[6],464.33 u/L
same,ASPARTATE AMINOTRANSFERASE,[6],99 u/L
same,BLOOD UREA NITROGEN,[6],11.33 mg/dL
same,CARBON DIOXIDE,[6],27.33 mmol/L
same,CHOLESTEROL,[6],40.33 mg/dL
same,CREATINE PHOSPHOKINASE,[6],288.67 u/L
same,CREATININE,[6],0.23 mg/dL
same,GLUCOSE,[6],136.67 mg/dL
same,LACTATE DEHYDROGENASE,[6],164.33 u/L
same,LIPASE,[6],9.67 u/L
same,TOTAL BILIRUBIN,[6],0.1 mg/dL
